Source: publication doi:10.1101/2024.04.25.591105v1 (biorxiv, 2024)

Molecular target: 14-3-3σΔC / ERα phosphopeptide complex (crystals) (Homo sapiens, UniProt P03372+P31947)
Experiment: X-ray crystallography, soaking
Type: binding
Conditions: ternary complex with Ac-ERα phosphopeptide

Sequence of 14-3-3σΔC / ERα phosphopeptide complex (crystals) (P31947 1-231, stated change not applied, other chains not shown): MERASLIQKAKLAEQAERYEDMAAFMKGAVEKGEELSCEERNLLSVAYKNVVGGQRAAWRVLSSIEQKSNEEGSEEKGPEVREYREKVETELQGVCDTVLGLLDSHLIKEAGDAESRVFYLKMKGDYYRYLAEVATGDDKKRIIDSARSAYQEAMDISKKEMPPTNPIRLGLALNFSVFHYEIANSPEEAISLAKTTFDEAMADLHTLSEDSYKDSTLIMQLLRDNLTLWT

Compound	X-ray crystallography, soaking
C=CC(C)(C)OC[C@H]1O[C@H](O[C@@H]2C3=C([C@H](C)CNC(C)=O)C[C@H](O)[C@]3(C)/C=C3\[C@@H](COC)CC[C@H]3[C@@H](C)[C@H]2O)[C@H](O)[C@@H](O)[C@@H]1O [FC-NAc]	8BZH (FC-NAc)
COC[C@H]1CC[C@@H]2/C1=C/[C@]1(C)C(=C([C@H](C)CNC(C)=O)C[C@@H]1O)[C@@H](O)[C@H](O)[C@@H]2C [FC-NAg]	8BZT (FC-NAg)
